The results in this text go back to ChEMBL document CHEMBL2073995, “Possible involvement of P-glycoprotein in renal excretion of pazufloxacin in rats” (Eur J Pharmacol, 2004).

Structures are written as SMILES.

In the data set the target is ATP-dependent translocase ABCB1 (Homo sapiens, UniProt P08183). Briefly: TP_TRANSPORTER: cell accumulation in K562/ADR cells. The class given is functional, cell-based.
Sequence of ATP-dependent translocase ABCB1 (P08183 whole entry): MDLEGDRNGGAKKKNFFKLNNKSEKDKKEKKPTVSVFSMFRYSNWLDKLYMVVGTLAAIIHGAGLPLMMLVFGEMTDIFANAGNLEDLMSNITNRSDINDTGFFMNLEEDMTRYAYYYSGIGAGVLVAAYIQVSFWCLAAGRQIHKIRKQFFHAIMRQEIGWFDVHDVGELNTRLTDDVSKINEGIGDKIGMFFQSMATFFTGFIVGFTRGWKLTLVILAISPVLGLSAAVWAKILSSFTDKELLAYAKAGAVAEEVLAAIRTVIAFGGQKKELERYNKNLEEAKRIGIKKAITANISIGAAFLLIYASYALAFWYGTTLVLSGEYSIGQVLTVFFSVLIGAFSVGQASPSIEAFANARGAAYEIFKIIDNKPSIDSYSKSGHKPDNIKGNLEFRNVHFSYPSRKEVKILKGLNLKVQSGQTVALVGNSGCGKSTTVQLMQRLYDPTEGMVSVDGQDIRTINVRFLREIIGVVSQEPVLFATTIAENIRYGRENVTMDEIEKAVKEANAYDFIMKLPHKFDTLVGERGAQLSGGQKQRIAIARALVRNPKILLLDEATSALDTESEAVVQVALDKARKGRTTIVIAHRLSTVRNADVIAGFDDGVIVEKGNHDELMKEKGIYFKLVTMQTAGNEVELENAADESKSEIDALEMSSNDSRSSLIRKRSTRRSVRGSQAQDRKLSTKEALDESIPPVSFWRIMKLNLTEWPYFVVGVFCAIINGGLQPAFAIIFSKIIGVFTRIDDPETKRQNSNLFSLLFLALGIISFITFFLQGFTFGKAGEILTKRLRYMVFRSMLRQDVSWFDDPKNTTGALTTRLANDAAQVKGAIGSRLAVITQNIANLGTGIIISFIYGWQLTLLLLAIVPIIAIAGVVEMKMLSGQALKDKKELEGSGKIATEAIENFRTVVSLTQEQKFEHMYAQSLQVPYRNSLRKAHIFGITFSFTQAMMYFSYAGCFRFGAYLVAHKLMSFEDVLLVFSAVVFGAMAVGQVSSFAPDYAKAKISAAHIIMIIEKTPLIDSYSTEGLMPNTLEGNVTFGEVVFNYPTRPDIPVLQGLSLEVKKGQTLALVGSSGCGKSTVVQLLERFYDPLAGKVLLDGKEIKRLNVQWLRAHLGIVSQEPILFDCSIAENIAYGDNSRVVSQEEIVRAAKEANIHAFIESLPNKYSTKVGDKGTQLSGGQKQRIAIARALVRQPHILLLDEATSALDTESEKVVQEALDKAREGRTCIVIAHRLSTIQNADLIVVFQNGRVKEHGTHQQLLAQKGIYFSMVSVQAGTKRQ

Turning to `C[C@H]1COc2c(C3(N)CC3)c(F)cc3c(=O)c(C(=O)O)cn1c23` [PAZUFLOXACIN], the Activity entry was “substrate [+]”.
